This note sets out measurements from US20240245682A1, “ALPHA-V-BETA-8 INTEGRIN INHIBITORS AND USES THEREOF” (Pliant Therapeutics, Inc., priority 2022, published 2024).

Holding throughout (test): AlphaScreen proximity-based integrin binding assay with TGF-b1 LAP
Common to all, as to details: values given as ranges
(Alpha assays give light when donor and acceptor beads are brought close together.)

One assay addresses human integrin αVβ1 (Homo sapiens, UniProt P05556+P06756). On the procedure: (§1) The biochemical potency of the disclosed compounds was determined using the AlphaScreen® (Perkin Elmer, Waltham, MA) proximity-based assay as described previously (Ullman E F et al., Luminescent oxygen channeling immunoassay: Measurement of particle binding kinetics by chemiluminescence. Proc. Natl. Acad. Sci. USA, Vol. 91, pp. 5426-5430, June 1994, herein incorporated by reference in its entirety). To gauge the potency of inhibitors of binding to each of human integrins αVβ1, αVβ6, and αVβ8, inhibitor compounds were independently incubated with one of αVβ1, αVβ6, or αVβ8, together with TGF-b1 LAP and biotinylated anti-LAP antibody plus acceptor and donor beads, following the manufacture's recommendations. The donor beads were coated with streptavidin. […] All incubations occurred at room temperatures in 50 mM Tris-HCl, pH 7.5, 0.1% BSA supplemented with 1 mM each CaCl2 and MgCl2.
(§2) The order of reagent addition was as follows:
(§3) 1. αVβ1, αVβ6, or αVβ8 integrin, test inhibitor compound, LAP, biotinylated anti-LAP antibody and acceptor beads were all added together.
(§4) 2. After 2 hours, donor beads were added. After another 30 minute incubation, samples were then read.
(§5) Integrin binding was evaluated by exciting donor beads at 680 nm, and measuring the fluorescent signal produced, between 520-620 nm, using a Biotek Instruments (Winooski, VT, USA) SynergyNeo2 multimode plate reader. Compound potency was assessed by determining inhibitor concentrations required to reduce fluorescent light output by 50%. Data analysis for IC50 determinations was carried out by nonlinear four parameter logistic regression analysis using Dotmatics ELN Software (Core Informatics Inc., Branford, Ct). […] Comp #in the Table and Examples below refers to the compound of the corresponding Example number as described in the Synthetic Examples.

The target of another assay is human integrin αVβ8 (Homo sapiens, UniProt P06756+P26012). Here is the method:
as §1, §2, §3, §4, §5

The next assay addresses human integrin αVβ6 (Homo sapiens, UniProt P06756+P18564). Here is the method:
as §1, §2, §3, §4, §5

Sequence of human integrin αVβ8 (P06756 31-992 limits assumed): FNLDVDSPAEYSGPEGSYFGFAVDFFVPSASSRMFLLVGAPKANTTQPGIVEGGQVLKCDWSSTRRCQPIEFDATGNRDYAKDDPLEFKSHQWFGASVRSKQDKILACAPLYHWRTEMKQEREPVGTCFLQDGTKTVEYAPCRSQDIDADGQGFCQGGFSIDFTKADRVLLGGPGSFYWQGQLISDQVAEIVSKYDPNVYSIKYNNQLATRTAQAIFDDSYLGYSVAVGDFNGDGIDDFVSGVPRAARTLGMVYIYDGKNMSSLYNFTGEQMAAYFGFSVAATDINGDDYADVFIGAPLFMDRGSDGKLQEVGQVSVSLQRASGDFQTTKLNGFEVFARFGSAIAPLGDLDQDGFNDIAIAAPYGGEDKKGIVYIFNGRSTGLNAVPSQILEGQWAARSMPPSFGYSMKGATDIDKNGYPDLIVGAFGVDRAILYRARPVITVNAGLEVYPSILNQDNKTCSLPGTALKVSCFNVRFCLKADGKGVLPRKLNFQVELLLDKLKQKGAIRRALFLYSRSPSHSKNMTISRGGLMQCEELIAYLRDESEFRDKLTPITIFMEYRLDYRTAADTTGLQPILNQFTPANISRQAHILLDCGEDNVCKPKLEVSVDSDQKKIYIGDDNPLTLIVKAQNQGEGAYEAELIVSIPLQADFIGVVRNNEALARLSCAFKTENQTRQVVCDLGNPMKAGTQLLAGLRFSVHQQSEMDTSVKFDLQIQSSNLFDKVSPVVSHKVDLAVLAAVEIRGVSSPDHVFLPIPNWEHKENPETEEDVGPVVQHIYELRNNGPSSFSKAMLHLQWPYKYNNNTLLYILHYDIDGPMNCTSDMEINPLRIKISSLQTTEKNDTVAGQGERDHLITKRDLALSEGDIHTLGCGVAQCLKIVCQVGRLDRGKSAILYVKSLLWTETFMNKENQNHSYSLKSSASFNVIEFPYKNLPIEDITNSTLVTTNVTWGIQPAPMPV
Sequence of human integrin αVβ8 (P26012 43-684 limits assumed): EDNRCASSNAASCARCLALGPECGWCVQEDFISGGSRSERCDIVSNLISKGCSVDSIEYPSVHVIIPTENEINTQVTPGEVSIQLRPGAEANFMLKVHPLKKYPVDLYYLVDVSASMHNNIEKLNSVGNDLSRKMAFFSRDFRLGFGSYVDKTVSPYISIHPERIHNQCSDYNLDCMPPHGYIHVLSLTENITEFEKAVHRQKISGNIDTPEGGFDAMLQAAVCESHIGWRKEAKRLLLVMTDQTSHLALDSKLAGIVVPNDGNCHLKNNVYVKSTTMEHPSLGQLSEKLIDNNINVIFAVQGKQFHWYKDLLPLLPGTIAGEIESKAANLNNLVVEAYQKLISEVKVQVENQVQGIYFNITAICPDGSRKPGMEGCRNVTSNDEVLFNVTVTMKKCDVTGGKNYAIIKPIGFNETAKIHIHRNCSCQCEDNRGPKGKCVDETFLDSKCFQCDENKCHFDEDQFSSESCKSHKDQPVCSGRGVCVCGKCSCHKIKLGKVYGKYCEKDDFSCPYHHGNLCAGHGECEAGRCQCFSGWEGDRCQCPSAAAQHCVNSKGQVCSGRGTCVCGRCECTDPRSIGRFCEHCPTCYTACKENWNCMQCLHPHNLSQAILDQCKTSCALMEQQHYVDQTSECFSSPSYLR
Sequence of human integrin αVβ6 (P06756 31-992 limits assumed): as the sequence (P06756 31-992 limits assumed) above
Sequence of human integrin αVβ6 (P18564 22-707 limits assumed): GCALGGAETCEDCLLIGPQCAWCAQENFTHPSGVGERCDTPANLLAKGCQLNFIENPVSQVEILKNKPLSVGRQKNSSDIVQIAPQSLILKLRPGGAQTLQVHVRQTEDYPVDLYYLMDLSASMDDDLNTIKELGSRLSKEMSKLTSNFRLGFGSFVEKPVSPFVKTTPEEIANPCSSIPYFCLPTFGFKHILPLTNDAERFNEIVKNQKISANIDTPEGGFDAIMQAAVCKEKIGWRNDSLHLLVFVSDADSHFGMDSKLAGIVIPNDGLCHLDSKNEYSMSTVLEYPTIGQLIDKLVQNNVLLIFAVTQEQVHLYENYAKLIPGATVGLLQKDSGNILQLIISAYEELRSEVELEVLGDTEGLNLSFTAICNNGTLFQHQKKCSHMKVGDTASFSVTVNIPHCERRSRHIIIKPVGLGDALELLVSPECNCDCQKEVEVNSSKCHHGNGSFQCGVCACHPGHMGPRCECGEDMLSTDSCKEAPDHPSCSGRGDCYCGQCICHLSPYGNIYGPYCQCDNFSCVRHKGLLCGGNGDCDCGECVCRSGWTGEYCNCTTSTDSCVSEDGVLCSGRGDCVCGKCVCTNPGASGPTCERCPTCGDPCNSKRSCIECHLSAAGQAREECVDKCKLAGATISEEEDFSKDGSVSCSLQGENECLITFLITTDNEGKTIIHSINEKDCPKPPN
Sequence of human integrin αVβ1 (P06756 31-992 limits assumed): as the sequence (P06756 31-992 limits assumed) above
Sequence of human integrin αVβ1 (P05556 21-728 limits assumed): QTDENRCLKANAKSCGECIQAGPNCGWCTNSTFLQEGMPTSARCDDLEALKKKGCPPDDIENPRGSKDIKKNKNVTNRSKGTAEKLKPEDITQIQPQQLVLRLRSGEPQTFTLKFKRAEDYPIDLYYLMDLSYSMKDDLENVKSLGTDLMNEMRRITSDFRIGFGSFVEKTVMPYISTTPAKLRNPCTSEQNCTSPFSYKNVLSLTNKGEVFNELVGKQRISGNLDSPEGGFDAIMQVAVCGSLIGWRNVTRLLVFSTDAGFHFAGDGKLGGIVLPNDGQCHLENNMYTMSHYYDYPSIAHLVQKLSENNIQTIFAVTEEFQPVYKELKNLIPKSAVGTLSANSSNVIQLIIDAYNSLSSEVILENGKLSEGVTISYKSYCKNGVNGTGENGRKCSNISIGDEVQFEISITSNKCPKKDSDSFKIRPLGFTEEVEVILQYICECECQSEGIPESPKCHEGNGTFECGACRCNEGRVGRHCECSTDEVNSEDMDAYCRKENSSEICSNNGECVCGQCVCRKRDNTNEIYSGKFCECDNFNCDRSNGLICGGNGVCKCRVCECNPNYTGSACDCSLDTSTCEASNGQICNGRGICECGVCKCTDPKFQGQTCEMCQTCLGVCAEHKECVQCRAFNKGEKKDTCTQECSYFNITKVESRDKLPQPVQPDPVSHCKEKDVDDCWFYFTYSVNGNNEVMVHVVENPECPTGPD

In the case of `CC(C)(C(=O)N[C@@H](CCOCCCCc1ccc2c(n1)NCCC2)C(=O)O)c1cc(F)cnc1Cl` [Compound 23, N-(2-(2-chloro-5-fluoropyridin-3-yl)-2-methylpropanoyl)-O-(4-(5,6,7,8-tetrahydro-1,8-naphthyridin-2-yl)butyl)-L-homoserine], the 50% inhibitory concentration (IC50) at human integrin αVβ1 is < 50 nM; at human integrin αVβ8 it was 50 to 150 nM; at human integrin αVβ6 it was 250 to 500 nM.

`O=C(O)[C@H](CCOCCCCc1ccc2c(n1)NCCC2)NC(=O)C1(c2c(Cl)cncc2Cl)CC1` [Compound 24, N-(1-(3,5-dichloropyridin-4-yl)cyclopropane-1-carbonyl)-O-(4-(5,6,7,8-tetrahydro-1,8-naphthyridin-2-yl)butyl)-L-homoserine]: the IC50 at human integrin αVβ1 was < 50 nM; at human integrin αVβ8, < 50 nM; at human integrin αVβ6, 50 to 150 nM.

For the compound `O=C(O)[C@H](CCOCCCCc1ccc2c(n1)NCCC2)NC(=O)C1(c2ncccc2C(F)(F)F)CC1` [Compound 25, O-(4-(5,6,7,8-tetrahydro-1,8-naphthyridin-2-yl)butyl)-N-(1-(3-(trifluoromethyl)pyridin-2-yl)cyclopropane-1-carbonyl)-L-homoserine], the half-inhibitory concentration (IC50) was < 50 nM on human integrin αVβ1, < 50 nM at human integrin αVβ8 and ≥ 500 nM at human integrin αVβ6.

On to `COc1ccc(Cl)c(C2(C(=O)N[C@@H](CCOCCCCc3ccc4c(n3)NCCC4)C(=O)O)CC2)n1` [Compound 26, N-(1-(3-chloro-6-methoxypyridin-2-yl)cyclopropane-1-carbonyl)-O-(4-(5,6,7,8-tetrahydro-1,8-naphthyridin-2-yl)butyl)-L-homoserine], for which the values for the IC50 on human integrin αVβ1, at human integrin αVβ8 and at human integrin αVβ6 were < 50 nM, < 50 nM and 250 to 500 nM, respectively.

As to `N#Cc1cncc(C2(C(=O)N[C@@H](CCOCCCCc3ccc4c(n3)NCCC4)C(=O)O)CC2)c1` [Compound 27, N-(1-(5-cyanopyridin-3-yl)cyclopropane-1-carbonyl)-O-(4-(5,6,7,8-tetrahydro-1,8-naphthyridin-2-yl)butyl)-L-homoserine], the half-maximal inhibitory concentration (IC50) on human integrin αVβ1 was < 50 nM; at human integrin αVβ8, 150 to 250 nM; on human integrin αVβ6, ≥ 500 nM.

As for `Cc1ncc(F)cc1C1(C(=O)N[C@@H](CCOCCCCc2ccc3c(n2)NCCC3)C(=O)O)CC1` [Compound 28, N-(1-(5-fluoro-2-methylpyridin-3-yl)cyclopropane-1-carbonyl)-O-(4-(5,6,7,8-tetrahydro-1,8-naphthyridin-2-yl)butyl)-L-homoserine], the values for the half-maximal inhibitory concentration (IC50) on human integrin αVβ1, at human integrin αVβ8 and on human integrin αVβ6 were < 50 nM, < 50 nM and ≥ 500 nM, respectively.

As for `Cc1cccnc1C1(C(=O)N[C@@H](CCOCCCCc2ccc3c(n2)NCCC3)C(=O)O)CC1` [Compound 29, N-(1-(3-methylpyridin-2-yl)cyclopropane-1-carbonyl)-O-(4-(5,6,7,8-tetrahydro-1,8-naphthyridin-2-yl)butyl)-L-homoserine], the half-inhibitory concentration (IC50) on human integrin αVβ1 is 50 to 150 nM; on human integrin αVβ8 it was < 50 nM; on human integrin αVβ6, ≥ 500 nM.

In the case of `COc1cccnc1C1(C(=O)N[C@@H](CCOCCCCc2ccc3c(n2)NCCC3)C(=O)O)CC1` [Compound 30, N-(1-(3-methoxypyridin-2-yl)cyclopropane-1-carbonyl)-O-(4-(5,6,7,8-tetrahydro-1,8-naphthyridin-2-yl)butyl)-L-homoserine], the IC50 is 50 to 150 nM on human integrin αVβ1, 50 to 150 nM at human integrin αVβ8 and ≥ 500 nM at human integrin αVβ6.

Consider `O=C(O)[C@H](CCOCCCCc1ccc2c(n1)NCCC2)NC(=O)C1(c2ncnc3ccccc23)CC1` [Compound 31, N-(1-(quinazolin-4-yl)cyclopropane-1-carbonyl)-O-(4-(5,6,7,8-tetrahydro-1,8-naphthyridin-2-yl)butyl)-L-homoserine], for which the IC50 is < 50 nM on human integrin αVβ1, < 50 nM on human integrin αVβ8 and ≥ 500 nM at human integrin αVβ6.

What is called IC50 is the concentration that gives 50% inhibition.
